Converted amounts (≈) assume the structure as drawn. The source made the active and inactive calls. The calls are words filed in the database; no cut-off is given here.
Key:
Staphylococcus aureus [1] = test: Antibacterial activity against Staphylococcus aureus 209 incubated for 24 hrs by absorbance based analysis; type: functional, organism-based; settings: Staphylococcus aureus, 209, 24 h
Escherichia coli [2] = test: Antibacterial activity against Escherichia coli HO141 incubated for 24 hrs by absorbance based analysis; type: functional, organism-based; settings: HO141, 24 h
Plasmodium falciparum = test: Antimalarial activity against Plasmodium falciparum 3D7 infected in human erythrocytes measured after 72 hrs by absorbance based analysis; type: functional, organism-based; settings: 3D7, 72 h
[3] = Cytotoxicity against human HeLa cells incubated for 48 hrs by WST-8 assay; type: toxicity, cell-based
[4] = Cytotoxicity against human HL-60 cells incubated for 48 hrs by WST-8 assay; type: toxicity, cell-based
Staphylococcus aureus [5] = test: Antibacterial activity against methicillin sensitive Staphylococcus aureus FDA209P by CLSI protocol based assay; type: functional
Staphylococcus aureus [6] = test: Antibacterial activity against methicillin resistant Staphylococcus aureus 92-1191 by CLSI protocol based assay; type: functional
Staphylococcus aureus [7] = test: Antibacterial activity against methicillin resistant Staphylococcus aureus ATCC BAA-1717 by CLSI protocol based assay; type: functional
Staphylococcus aureus [8] = test: Antibacterial activity against methicillin resistant Staphylococcus aureus ATCC BAA-1718 by CLSI protocol based assay; type: functional
Staphylococcus aureus [9] = test: Antibacterial activity against methicillin resistant Staphylococcus aureus NCTC8173 by CLSI protocol based assay; type: functional
[10] = Inhibition of metallo-beta lactamase (unknown origin) by nitrocefin method; parameters: species or system Bacteria
Escherichia coli [11] = test: Potentiation of meropenem induced antibacterial activity against drug-resistant Escherichia coli KB366 expressing metallo-betalactamase by agar disk diffusion method; type: functional, organism-based

In the case of `CCCCCc1oc(=O)c(CCCC)c(O)c1CCCC`, the IC50 (Staphylococcus aureus [1]) is reported as 1.3 µg/mL (≈ 4.42 µM), the IC50 (Escherichia coli [2]) is reported as over 10 µg/mL and the IC50 (Plasmodium falciparum) is reported as 1.9 µg/mL (≈ 6.45 µM). For the same compound, the IC50 at 48 h [3] was over 10 µg/mL, the IC50 at 48 h [4] was over 10 µg/mL and the MIC (Staphylococcus aureus [5]) was 15 µg/mL (≈ 50.9 µM). For the same compound, the MIC (Staphylococcus aureus [6]) was 15 µg/mL (≈ 50.9 µM), the MIC (Staphylococcus aureus [7]) was 15 µg/mL (≈ 50.9 µM) and the MIC (Staphylococcus aureus [8]) was 15 µg/mL (≈ 50.9 µM). For the same compound, the MIC (Staphylococcus aureus [9]) was 15 µg/mL (≈ 50.9 µM) and the IC50 [10] was over 100 µM.

For `CCCCc1c(CCCC(C)C)oc(=O)c(CCCC)c1O`, the IC50 (Staphylococcus aureus [1]) was 1.3 µg/mL (≈ 4.21 µM), the IC50 (Escherichia coli [2]) was over 10 µg/mL and the IC50 (Plasmodium falciparum) was over 10 µg/mL. For the same compound, the IC50 at 48 h [3] was over 10 µg/mL, the IC50 at 48 h [4] was over 10 µg/mL and the MIC (Staphylococcus aureus [5]) was 15 µg/mL (≈ 48.6 µM). The MIC (Staphylococcus aureus [6]) was 15 µg/mL (≈ 48.6 µM), the MIC (Staphylococcus aureus [7]) was 7.7 µg/mL (≈ 25 µM) and the MIC (Staphylococcus aureus [8]) was 7.5 µg/mL (≈ 24.3 µM). The MIC (Staphylococcus aureus [9]) was 7.5 µg/mL (≈ 24.3 µM) and the IC50 [10] was over 100 µM.

For `CCCCc1c([C@H](CCCC)C(=O)CCC(C)C)oc(=O)c(CCCC)c1O`, the IC50 (Staphylococcus aureus [1]) was 1 µg/mL (≈ 2.55 µM), the IC50 (Escherichia coli [2]) was over 10 µg/mL and the IC50 (Plasmodium falciparum) was 9.4 µg/mL (≈ 23.9 µM). For the same compound, the IC50 at 48 h [3] was over 10 µg/mL, the IC50 at 48 h [4] was over 10 µg/mL and the MIC (Staphylococcus aureus [5]) was 10 µg/mL (≈ 25.5 µM). It also gave an MIC (Staphylococcus aureus [6]) of 10 µg/mL (≈ 25.5 µM), an MIC (Staphylococcus aureus [7]) of 5 µg/mL (≈ 12.7 µM) and an MIC (Staphylococcus aureus [8]) of 5 µg/mL (≈ 12.7 µM). The MIC (Staphylococcus aureus [9]) was 5 µg/mL (≈ 12.7 µM) and the IC50 [10] was over 100 µM.

Work on `CCCCc1c(O)c(CCC(C)C)c([C@H](CCCC)C(=O)CCCC(C)C)oc1=O` yielded an IC50 (Staphylococcus aureus [1]) of 0.5 µg/mL (≈ 1.19 µM), an IC50 (Escherichia coli [2]) of over 10 µg/mL and an IC50 (Plasmodium falciparum) of 6.3 µg/mL (≈ 15 µM). For the same compound, the IC50 at 48 h [3] was 6.3 µg/mL (≈ 15 µM), the IC50 at 48 h [4] was 5.5 µg/mL (≈ 13.1 µM) and the MIC (Staphylococcus aureus [5]) was 2.5 µg/mL (≈ 5.94 µM). For the same compound, the MIC (Staphylococcus aureus [6]) was 2.5 µg/mL (≈ 5.94 µM), the MIC (Staphylococcus aureus [7]) was 2.5 µg/mL (≈ 5.94 µM) and the MIC (Staphylococcus aureus [8]) was 2.5 µg/mL (≈ 5.94 µM). The MIC (Staphylococcus aureus [9]) was 2.5 µg/mL (≈ 5.94 µM) and the IC50 [10] was over 100 µM.

With `CCCCCC(=O)[C@@H](CCCC)c1oc(=O)c(CCCC)c(O)c1CCCC` the IC50 (Staphylococcus aureus [1]) was 0.7 µg/mL (≈ 1.78 µM), the IC50 (Escherichia coli [2]) was over 10 µg/mL and the IC50 (Plasmodium falciparum) was 2.3 µg/mL (≈ 5.86 µM). For the same compound, the IC50 at 48 h [3] was over 10 µg/mL, the IC50 at 48 h [4] was over 10 µg/mL and the MIC (Staphylococcus aureus [5]) was 5 µg/mL (≈ 12.7 µM). The MIC (Staphylococcus aureus [6]) was 5 µg/mL (≈ 12.7 µM), the MIC (Staphylococcus aureus [7]) was 5 µg/mL (≈ 12.7 µM) and the MIC (Staphylococcus aureus [8]) was 5 µg/mL (≈ 12.7 µM). For the same compound, the MIC (Staphylococcus aureus [9]) was 5 µg/mL (≈ 12.7 µM), the IC50 [10] was 24.1 µM and the Activity (Escherichia coli [11]) was “inactive”.

`CCCCCCCc1oc(=O)c(CCCC)c(O)c1CCCC` showed an IC50 (Staphylococcus aureus [1]) of 2.6 µg/mL (≈ 8.06 µM), an IC50 (Escherichia coli [2]) of over 10 µg/mL and an IC50 (Plasmodium falciparum) of 0.1 µg/mL (≈ 0.31 µM). The IC50 at 48 h [3] was over 10 µg/mL, the IC50 at 48 h [4] was over 10 µg/mL and the MIC (Staphylococcus aureus [5]) was 16 µg/mL (≈ 49.6 µM). For the same compound, the MIC (Staphylococcus aureus [6]) was 8.1 µg/mL (≈ 25.1 µM), the MIC (Staphylococcus aureus [7]) was 16 µg/mL (≈ 49.6 µM) and the MIC (Staphylococcus aureus [8]) was 8.1 µg/mL (≈ 25.1 µM). It also gave an MIC (Staphylococcus aureus [9]) of 8.1 µg/mL (≈ 25.1 µM) and an IC50 [10] of over 100 µM.

Work on `CCCCc1c([C@H](CCCC)C(=O)CCCC(C)C)oc(=O)c(CCC(C)C)c1O` yielded an IC50 (Staphylococcus aureus [1]) of 1.1 µg/mL (≈ 2.62 µM), an IC50 (Escherichia coli [2]) of over 10 µg/mL and an IC50 (Plasmodium falciparum) of 0.1 µg/mL (≈ 0.238 µM). It also gave an IC50 at 48 h [3] of 8.4 µg/mL (≈ 20 µM), an IC50 at 48 h [4] of 8.4 µg/mL (≈ 20 µM) and an MIC (Staphylococcus aureus [5]) of 3 µg/mL (≈ 7.13 µM). For the same compound, the MIC (Staphylococcus aureus [6]) was 6 µg/mL (≈ 14.3 µM), the MIC (Staphylococcus aureus [7]) was 3 µg/mL (≈ 7.13 µM) and the MIC (Staphylococcus aureus [8]) was 3 µg/mL (≈ 7.13 µM). For the same compound, the MIC (Staphylococcus aureus [9]) was 3 µg/mL (≈ 7.13 µM), the IC50 [10] was 15.3 µM and the Activity (Escherichia coli [11]) was “inactive”.

Compound `CCCCCC(=O)[C@@H](CCC(C)C)c1oc(=O)c(CCCC)c(O)c1CCCC` has an IC50 (Staphylococcus aureus [1]) of 0.5 µg/mL (≈ 1.23 µM), an IC50 (Escherichia coli [2]) of over 10 µg/mL and an IC50 (Plasmodium falciparum) of 6.9 µg/mL (≈ 17 µM). The IC50 at 48 h [3] was 9.7 µg/mL (≈ 23.9 µM), the IC50 at 48 h [4] was 9.7 µg/mL (≈ 23.9 µM) and the MIC (Staphylococcus aureus [5]) was 5 µg/mL (≈ 12.3 µM). For the same compound, the MIC (Staphylococcus aureus [6]) was 5 µg/mL (≈ 12.3 µM), the MIC (Staphylococcus aureus [7]) was 2.5 µg/mL (≈ 6.15 µM) and the MIC (Staphylococcus aureus [8]) was 5 µg/mL (≈ 12.3 µM). It also gave an MIC (Staphylococcus aureus [9]) of 2.5 µg/mL (≈ 6.15 µM) and an IC50 [10] of over 100 µM.

`CCCCCCc1c(O)c(CCCC)c([C@H](CCCC)C(=O)CCCCC)oc1=O` showed an IC50 (Staphylococcus aureus [1]) of 0.8 µg/mL (≈ 1.9 µM), an IC50 (Escherichia coli [2]) of over 10 µg/mL and an IC50 (Plasmodium falciparum) of 8 µg/mL (≈ 19 µM). The IC50 at 48 h [3] was 7.6 µg/mL (≈ 18.1 µM), the IC50 at 48 h [4] was 8.4 µg/mL (≈ 20 µM) and the MIC (Staphylococcus aureus [5]) was 2.5 µg/mL (≈ 5.94 µM). The MIC (Staphylococcus aureus [6]) was 2.5 µg/mL (≈ 5.94 µM), the MIC (Staphylococcus aureus [7]) was 2.5 µg/mL (≈ 5.94 µM) and the MIC (Staphylococcus aureus [8]) was 2.5 µg/mL (≈ 5.94 µM). For the same compound, the MIC (Staphylococcus aureus [9]) was 2.5 µg/mL (≈ 5.94 µM) and the IC50 [10] was over 100 µM.

`CCCCCC(=O)[C@@H](CCCC)c1oc(=O)c(CC(C)C)c(O)c1CCCC` showed an IC50 (Staphylococcus aureus [1]) of 1.6 µg/mL (≈ 4.08 µM), an IC50 (Escherichia coli [2]) of over 10 µg/mL and an IC50 (Plasmodium falciparum) of over 10 µg/mL. The IC50 at 48 h [3] was over 10 µg/mL, the IC50 at 48 h [4] was over 10 µg/mL and the MIC (Staphylococcus aureus [5]) was 10 µg/mL (≈ 25.5 µM). The MIC (Staphylococcus aureus [6]) was 20 µg/mL (≈ 50.9 µM), the MIC (Staphylococcus aureus [7]) was 10 µg/mL (≈ 25.5 µM) and the MIC (Staphylococcus aureus [8]) was 10 µg/mL (≈ 25.5 µM). It also gave an MIC (Staphylococcus aureus [9]) of 10 µg/mL (≈ 25.5 µM) and an IC50 [10] of over 100 µM.

In the case of `C[C@H](CS)C(=O)N1CCC[C@H]1C(=O)O` [CAPTOPRIL], the IC50 [10] is reported as 69 µM.

`C[C@@H](O)[C@H]1C(=O)N2C(C(=O)O)=C(S[C@@H]3CN[C@H](C(=O)N(C)C)C3)[C@H](C)[C@H]12` [MEROPENEM] showed an MIC (Staphylococcus aureus [5]) of 0.031 µg/mL (≈ 0.0808 µM), an MIC (Staphylococcus aureus [6]) of 256 µg/mL (≈ 668 µM) and an MIC (Staphylococcus aureus [7]) of 16 µg/mL (≈ 41.7 µM). For the same compound, the MIC (Staphylococcus aureus [8]) was 0.125 µg/mL (≈ 0.326 µM) and the MIC (Staphylococcus aureus [9]) was 0.125 µg/mL (≈ 0.326 µM).

In the case of `CCCCCC(=O)[C@@H](CCCC)c1oc(=O)c(CCC(C)C)c(O)c1CCCC`, the IC50 (Staphylococcus aureus [1]) is reported as 0.7 µg/mL (≈ 1.72 µM), the IC50 (Escherichia coli [2]) is reported as over 10 µg/mL and the IC50 (Plasmodium falciparum) is reported as 1.3 µg/mL (≈ 3.2 µM). It also gave an IC50 at 48 h [3] of 7.3 µg/mL (≈ 18 µM), an IC50 at 48 h [4] of 4.9 µg/mL (≈ 12.1 µM) and an MIC (Staphylococcus aureus [5]) of 6 µg/mL (≈ 14.8 µM). For the same compound, the MIC (Staphylococcus aureus [6]) was 6 µg/mL (≈ 14.8 µM), the MIC (Staphylococcus aureus [7]) was 6 µg/mL (≈ 14.8 µM) and the MIC (Staphylococcus aureus [8]) was 3 µg/mL (≈ 7.38 µM). For the same compound, the MIC (Staphylococcus aureus [9]) was 3 µg/mL (≈ 7.38 µM), the IC50 [10] was 10.8 µM and the Activity (Escherichia coli [11]) was “inactive”.

For `CCCCc1c([C@H](CCC(C)C)C(=O)CCCC(C)C)oc(=O)c(CCCC)c1O`, the IC50 (Staphylococcus aureus [1]) was 0.5 µg/mL (≈ 1.19 µM), the IC50 (Escherichia coli [2]) was over 10 µg/mL and the IC50 (Plasmodium falciparum) was 7.7 µg/mL (≈ 18.3 µM). For the same compound, the IC50 at 48 h [3] was 8.9 µg/mL (≈ 21.2 µM), the IC50 at 48 h [4] was 9.3 µg/mL (≈ 22.1 µM) and the MIC (Staphylococcus aureus [5]) was 5 µg/mL (≈ 11.9 µM). The MIC (Staphylococcus aureus [6]) was 5 µg/mL (≈ 11.9 µM), the MIC (Staphylococcus aureus [7]) was 2.5 µg/mL (≈ 5.94 µM) and the MIC (Staphylococcus aureus [8]) was 2.5 µg/mL (≈ 5.94 µM). It also gave an MIC (Staphylococcus aureus [9]) of 2.5 µg/mL (≈ 5.94 µM) and an IC50 [10] of over 100 µM.
